The text below walks through data of EPA's ToxRefDB 2.

Some results are limits rather than exact numbers.

The subject of data set [1] is mouse. Particulars: Combined chronic toxicity/carcinogenicity; other; Oral; Feed; dose end: 104 week; group: systemic; systemic / pathology microscopic / blood / leukemia + systemic / pathology microscopic / blood / lymphoma nos + systemic / pathology ….
In data set [2] the test system is mouse. Particulars: Subchronic oral toxicity in rodents, other, Feed, dose end: 13 week, group: systemic, systemic / clinical chemistry / [other] / [other] + systemic / clinical chemistry / alderin epoxidase / alderin epoxidase + systemic / ….
In data set [3] the test system is rat. Conditions: Prenatal developmental toxicity study; sprague dawley; Oral; Gavage/Intubation; dose end: 17 GD; group: maternal; systemic / in life observation / body weight / body weight gain.
The test system of another data set is dog. Particulars: Chronic toxicity, beagle, Oral, Feed, dose end: 52 week.
In data set [4] the test system is rat. Conditions: Chronic toxicity; wistar; Oral; Feed; dose end: 92 week; group: cholinesterase; cholinesterase / cholinesterase / cholinesterase / erythrocyte cholinesterase (che) + cholinesterase / cholinesterase / cholinesterase / ….
In data set [5] the test system is rat. Particulars: Subchronic oral toxicity in rodents, wistar, [Not Specified], dose end: 6 month.
In data set [6] the test system is rat. Particulars: Prenatal developmental toxicity study, sprague dawley, Oral, Gavage/Intubation, dose end: 15 GD.
Data set [7] deals with rabbit. Conditions: Sub-acute repeat dose toxicity, Oral, Gavage/Intubation, dose end: 5 day, group: systemic.
Data set [8] relates to rabbit. Particulars: Sub-acute repeat dose toxicity; Oral; Gavage/Intubation; dose end: 5 day; group: systemic; systemic / in life observation / food consumption / food consumption.
The test system of data set [9] is rat. Conditions: Chronic toxicity; sprague dawley; Oral; Feed; dose end: 104 week; group: systemic; systemic / pathology microscopic / mammary gland / mixed tumor nos + systemic / in life observation / body weight / body weight gain + ….
Setting [10] is: group: cholinesterase, cholinesterase / cholinesterase / cholinesterase / plasma cholinesterase (che).
Setting [11] is: group: systemic, systemic / pathology microscopic / lymph node / hemorrhage.
[12] abbreviates: group: systemic, systemic / pathology microscopic / lymph node / hemorrhage + systemic / pathology microscopic / lymph node / hyperplasia.
The mark [13] stands for this setting: group: cholinesterase, cholinesterase / cholinesterase / cholinesterase / brain cholinesterase (che) + cholinesterase / cholinesterase / cholinesterase / ….
Where [14] appears, read: group: systemic, systemic / clinical chemistry / glucose / glucose + systemic / organ weight / liver / nos + systemic / organ weight / liver / relative to ….
The mark [15] stands for this setting: group: systemic, systemic / organ weight / brain / nos + systemic / organ weight / kidney / nos.
Setting [16] is: group: developmental, developmental / developmental malformation / bone / short.
The mark [17] stands for this setting: group: maternal, systemic / in life observation / body weight / body weight + systemic / in life observation / body weight / body weight gain + systemic / in….
The mark [18] stands for this setting: systemic / in life observation / body weight / body weight + systemic / in life observation / food consumption / food consumption.
The mark [19] stands for this setting: systemic / in life observation / food consumption / food consumption.

As a reminder, the LOAEL is the lowest dose or exposure tested at which an adverse effect was seen. In general, NOAEL refers to the highest dose or exposure tested at which no adverse effect was seen.

Consider `CC(=O)O[C@]1(C(C)=O)CC[C@H]2[C@@H]3C=C(Cl)C4=CC(=O)[C@@H]5C[C@@H]5[C@]4(C)[C@H]3CC[C@@]21C` [Cyproterone acetate], for which, in the data set on mouse [1], the LEL amounted to 120 mg/kg/day, the LOAEL was over 120 mg/kg/day, the NEL was under 120 mg/kg/day and the NOAEL is at least 120 mg/kg/day. For the same compound, in the data set on mouse [2], the LEL is 125 mg/kg/day, the LOAEL was over 125 mg/kg/day, the NEL is under 125 mg/kg/day and the NOAEL was at least 125 mg/kg/day.

On to `CCCCc1ncc(/C=C(\Cc2cccs2)C(=O)O)n1Cc1ccc(C(=O)O)cc1` [Eprosartan], for which, in the data set with rat [3], the LEL was 1000 mg/kg/day, the LOAEL was determined as 1000 mg/kg/day, the NEL is 100 mg/kg/day and the NOAEL was 100 mg/kg/day.

For `COP(=S)(OC)Oc1ccc([N+](=O)[O-])c(C)c1` [Fenitrothion], the LEL was determined as 0.25 mg/kg/day in the data set on dog (setting [10]); 0.25 mg/kg/day in the data set on dog (setting [11]); 0.27 mg/kg/day in the data set with rat [4]; 2 mg/kg/day in the data set with rat [5] (setting [13]); 0.59 mg/kg/day with rat [5] (setting [15]); 25 mg/kg/day in the data set with rat [6] (setting [16]). Besides, the LEL in the data set with rat [6] (setting [17]) was determined as 25 mg/kg/day. The LOAEL amounted to 0.25 mg/kg/day with dog (setting [10]); 0.25 mg/kg/day in the data set on dog (setting [11]); 0.27 mg/kg/day in the data set with rat [4]; 9.16 mg/kg/day with rat [5] (setting [13]); 2 mg/kg/day with rat [5] (setting [14]); 25 mg/kg/day in the data set with rat [6] (setting [16]). Besides, the LOAEL with rat [6] (setting [17]) was 25 mg/kg/day. In addition, the NEL with dog (setting [10]) is 0.125 mg/kg/day; in the data set with dog (setting [12]) it was 0.125 mg/kg/day; in the data set with rat [4], 0.128 mg/kg/day; in the data set on rat [5] (setting [13]), 0.64 mg/kg/day; in the data set with rat [5] (setting [15]) it was under 0.59 mg/kg/day; in the data set on rat [6] (setting [16]), 8 mg/kg/day. Besides, the NEL with rat [6] (setting [17]) was 8 mg/kg/day. Further, the NOAEL worked out at 0.125 mg/kg/day in the data set on dog (setting [10]); 0.125 mg/kg/day in the data set with dog (setting [12]); 0.128 mg/kg/day in the data set with rat [4]; 1.83 mg/kg/day with rat [5] (setting [13]); 0.64 mg/kg/day in the data set with rat [5] (setting [14]); 8 mg/kg/day in the data set on rat [6] (setting [16]). Further, the NOAEL in the data set with rat [6] (setting [17]) was found to be 8 mg/kg/day.

Consider `O=C(N[C@@H](Cc1ccccc1)[C@@H](O)C(=O)N1C[C@@H](O)[C@@H](O)C1)c1cc2cc(Cl)ccc2[nH]1` [Ingliforib], for which, in the data set on rabbit [7] (setting [18]), the lowest observed adverse effect level (LOAEL) was over 500 mg/kg/day and the NOAEL is at least 500 mg/kg/day. In addition, in the data set on rabbit [7] (setting [19]), the LEL worked out at 50 mg/kg/day and the NEL is under 50 mg/kg/day. In the data set on rabbit [8], the LEL is 250 mg/kg/day, the LOAEL is over 500 mg/kg/day, the NEL was under 250 mg/kg/day and the NOAEL was at least 500 mg/kg/day.

For `C#C[C@]1(OC(C)=O)CC[C@H]2[C@@H]3CCC4=CC(=O)CC[C@@H]4[C@H]3CC[C@@]21C` [Norethindrone acetate], in the data set on rat [9], the LEL turned out to be 0.289 mg/kg/day, the LOAEL is over 3.3 mg/kg/day, the NEL was under 0.289 mg/kg/day and the NOAEL is at least 3.3 mg/kg/day.
